In PubChem BioAssay AID248 (DTP/NCI, 2004):
Where “and” joins values, the source holds several entries; their conditions need not be identical. Equal values may be shown once. Toxic doses and inconclusive results are not listed. Cut-off read from the data, not from the text of the source: active = T/C of 150% or more; inactive = T/C below 125%.

Tested on: L1210 leukemia ip in BDF1 mice, survival T/C
Test: NCI In Vivo Anticancer Drug Screen. Data for tumor model L1210 Leukemia (intraperitoneal) in B6D2F1 (BDF1) mice
Settings: higher = longer survival
Procedure, shortened: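 In this screen, tumor-bearing mice given compound are compared to those given vehicle, and their survival values are reported as a treated-to-control quotient.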

[1] = endpoint: mean survival time, dose: 100.0 mg/kg/injection, schedule: Q01DX009 (ip), vehicle: saline with Tween-80
[2] = endpoint: mean survival time, dose: 100.0 mg/kg/injection, schedule: Q04DX003 (ip), vehicle: saline with Tween-80
[3] = endpoint: mean survival time, dose: 200.0 mg/kg/injection, schedule: Q01DX009 (ip), vehicle: saline with Tween-80
[4] = endpoint: mean survival time, dose: 200.0 mg/kg/injection, schedule: Q04DX003 (ip), vehicle: saline with Tween-80
[5] = endpoint: mean survival time, dose: 100.0 mg/kg/injection, schedule: Q04DX002 (ip), vehicle: saline with Tween-80
[6] = endpoint: mean survival time, dose: 200.0 mg/kg/injection, schedule: Q04DX002 (ip), vehicle: saline with Tween-80
[7] = endpoint: mean survival time, dose: 50.0 mg/kg/injection, schedule: Q01DX009 (ip), vehicle: saline
[8] = endpoint: mean survival time, dose: 100.0 mg/kg/injection, schedule: Q01DX001 (ip), vehicle: saline
[9] = endpoint: mean survival time, dose: 100.0 mg/kg/injection, schedule: Q04DX003 (ip), vehicle: Klucel (hydroxypropylcellulose) (HPC)
[10] = endpoint: mean survival time, dose: 200.0 mg/kg/injection, schedule: Q04DX003 (ip), vehicle: Klucel (hydroxypropylcellulose) (HPC)
[11] = endpoint: mean survival time, dose: 400.0 mg/kg/injection, schedule: Q04DX003 (ip), vehicle: Klucel (hydroxypropylcellulose) (HPC)
[12] = endpoint: mean survival time, dose: 100.0 mg/kg/injection, schedule: Q01DX009 (ip), vehicle: Klucel (hydroxypropylcellulose) (HPC)
[13] = endpoint: mean survival time, dose: 200.0 mg/kg/injection, schedule: Q01DX009 (ip), vehicle: Klucel (hydroxypropylcellulose) (HPC)
[14] = endpoint: mean survival time, dose: 400.0 mg/kg/injection, schedule: Q01DX009 (ip), vehicle: Klucel (hydroxypropylcellulose) (HPC)

Measured: T/C

NC(Cc1ccc(O)cc1)C(=O)OCc1ccccc1 (stereo not drawn)
inactive: [1] 88 % of control | endpoint: mean survival time, dose: 100.0 mg/kg/injection, schedule: Q04DX002 (ip), vehicle: Klucel (hydroxypropylcellulose) (HPC) 104 % of control | [2] 97 % of control | [3] 94 % of control | endpoint: mean survival time, dose: 200.0 mg/kg/injection, schedule: Q04DX002 (ip), vehicle: Klucel (hydroxypropylcellulose) (HPC) 96 % of control | [4] 94 % of control | endpoint: mean survival time, dose: 400.0 mg/kg/injection, schedule: Q01DX009 (ip), vehicle: saline with Tween-80 91 % of control | endpoint: mean survival time, dose: 400.0 mg/kg/injection, schedule: Q04DX002 (ip), vehicle: Klucel (hydroxypropylcellulose) (HPC) 96 % of control | endpoint: mean survival time, dose: 400.0 mg/kg/injection, schedule: Q04DX003 (ip), vehicle: saline with Tween-80 103 % of control

CC1(O)C(c2ccccc2)=Nc2ccccc21 (stereo not drawn)
inactive: [5] 95 % of control | [6] 113 % of control | endpoint: mean survival time, dose: 400.0 mg/kg/injection, schedule: Q04DX002 (ip), vehicle: saline with Tween-80 92 % of control

N#CCN1CCCCC1
inactive: endpoint: mean survival time, dose: 25.0 mg/kg/injection, schedule: Q01DX009 (ip), vehicle: saline 115 % of control | [7] 112 % of control

CCCCN(C(=O)O)P(=O)(OCC)OCC
inactive: [7] 101 % of control | endpoint: mean survival time, dose: 100.0 mg/kg/injection, schedule: Q01DX009 (ip), vehicle: saline 103 % of control | endpoint: mean survival time, dose: 200.0 mg/kg/injection, schedule: Q01DX009 (ip), vehicle: saline 109 % of control | endpoint: mean survival time, dose: 400.0 mg/kg/injection, schedule: Q01DX009 (ip), vehicle: saline 97 % of control

NNc1ncnc2c1ccn2C1OC(CO)C(O)C1O (stereo not drawn)
inactive: endpoint: mean survival time, dose: 5.0 mg/kg/injection, schedule: Q01DX001 (ip), vehicle: saline 110 % of control | endpoint: mean survival time, dose: 10.0 mg/kg/injection, schedule: Q01DX001 (ip), vehicle: saline 110 % of control | endpoint: mean survival time, dose: 20.0 mg/kg/injection, schedule: Q01DX001 (ip), vehicle: saline 121 % of control | endpoint: mean survival time, dose: 35.0 mg/kg/injection, schedule: Q01DX001 (ip), vehicle: saline 108 % of control | endpoint: mean survival time, dose: 40.0 mg/kg/injection, schedule: Q01DX001 (ip), vehicle: saline 115 % of control | endpoint: mean survival time, dose: 53.0 mg/kg/injection, schedule: Q01DX001 (ip), vehicle: saline 114 % of control | endpoint: mean survival time, dose: 80.0 mg/kg/injection, schedule: Q01DX001 (ip), vehicle: saline 114 % of control | [8] 119 % of control

c1ccc(C2=NNc3cccc[n+]3C2)cc1
inactive: endpoint: mean survival time, dose: 75.0 mg/kg/injection, schedule: Q01DX001 (ip), vehicle: other 101 % of control

[Cu+2].[NH-]C(CS)C(=O)O.[NH-]C(CS)C(=O)O (stereo not drawn)
inactive: endpoint: mean survival time, dose: 3.13 mg/kg/injection, schedule: Q04DX002 (ip), vehicle: saline with Tween-80 97 % of control | endpoint: mean survival time, dose: 6.25 mg/kg/injection, schedule: Q04DX002 (ip), vehicle: saline with Tween-80 93 % of control and 90 % of control | endpoint: mean survival time, dose: 25.0 mg/kg/injection, schedule: Q04DX002 (ip), vehicle: saline with Tween-80 90 % of control | endpoint: mean survival time, dose: 125.0 mg/kg/injection, schedule: Q04DX002 (ip), vehicle: saline with Tween-80 93 % of control

Cc1cn(C)c2nccnc12
inactive: endpoint: mean survival time, dose: 25.0 mg/kg/injection, schedule: Q01DX009 (ip), vehicle: water 104 % of control | endpoint: mean survival time, dose: 50.0 mg/kg/injection, schedule: Q01DX009 (ip), vehicle: water 110 % of control | endpoint: mean survival time, dose: 100.0 mg/kg/injection, schedule: Q01DX009 (ip), vehicle: water 98 % of control

CC1(C)N=C(N)N=C(N)N1c1cccc(OCCCC#N)c1
inactive: [8] 101 % of control

CCN(CC)C(=O)Oc1ccc(OC)cc1
inactive: [1] 109 % of control | [3] 96 % of control

COC(=O)C1=C(\N2CCCC2)CCCCC/C=C\1C(=O)OC
inactive: endpoint: mean survival time, dose: 75.0 mg/kg/injection, schedule: Q01DX009 (ip), vehicle: saline with Tween-80 97 % of control | endpoint: mean survival time, dose: 150.0 mg/kg/injection, schedule: Q01DX009 (ip), vehicle: saline with Tween-80 103 % of control | endpoint: mean survival time, dose: 300.0 mg/kg/injection, schedule: Q01DX009 (ip), vehicle: saline with Tween-80 107 % of control

CC1CCc2cc3ccccc3nc21 (stereo not drawn)
inactive: endpoint: mean survival time, dose: 50.0 mg/kg/injection, schedule: Q01DX009 (ip), vehicle: saline with Tween-80 104 % of control | [1] 104 % of control | [3] 112 % of control

COc1ccccc1NC(=S)NCc1ccco1
inactive: [5] 89 % of control | [6] 89 % of control

C(=N\n1cnc2c(SCc3ccccc3)ncnc21)/c1ccccc1
inactive: endpoint: mean survival time, dose: 100.0 mg/kg/injection, schedule: Q01DX001 (ip), vehicle: other 93 % of control | endpoint: mean survival time, dose: 200.0 mg/kg/injection, schedule: Q01DX001 (ip), vehicle: other 91 % of control | endpoint: mean survival time, dose: 400.0 mg/kg/injection, schedule: Q01DX001 (ip), vehicle: other 91 % of control

Cc1ncc([N+](=O)[O-])n1CCN1CCOCC1
inactive: endpoint: mean survival time, dose: 100.0 mg/kg/injection, schedule: Q04DX002 (ip), vehicle: saline 102 % of control | endpoint: mean survival time, dose: 200.0 mg/kg/injection, schedule: Q04DX002 (ip), vehicle: saline 96 % of control | endpoint: mean survival time, dose: 400.0 mg/kg/injection, schedule: Q04DX002 (ip), vehicle: saline 98 % of control

CN(C)C(=S)Sc1nc2ccccc2s1
inactive: [9] 101 % of control | [10] 104 % of control | [11] 101 % of control

O=C1C(Cl)=CC(=NBr)C=C1Cl
inactive: endpoint: mean survival time, dose: 12.5 mg/kg/injection, schedule: Q04DX002 (ip), vehicle: Klucel (hydroxypropylcellulose) (HPC) 88 % of control | endpoint: mean survival time, dose: 25.0 mg/kg/injection, schedule: Q04DX002 (ip), vehicle: Klucel (hydroxypropylcellulose) (HPC) 92 % of control | endpoint: mean survival time, dose: 50.0 mg/kg/injection, schedule: Q04DX002 (ip), vehicle: Klucel (hydroxypropylcellulose) (HPC) 98 % of control

NC(=S)c1ccc2ccc3cccnc3c2n1
inactive: endpoint: mean survival time, dose: 50.0 mg/kg/injection, schedule: Q04DX003 (ip), vehicle: saline with Tween-80 95 % of control | [2] 104 % of control | [4] 106 % of control

C=CS(=O)(=O)CCOc1ccc(Cl)cc1Cl
inactive: [12] 96 % of control | [13] 95 % of control

CC(=O)c1cccc(NC2C(N)C(NC(=O)N(C)C)(C(C)O)C(C)(O)C2(O)COC(=O)c2c(C)cccc2O)c1 (stereo not drawn)
inactive: endpoint: mean survival time, dose: 0.25 mg/kg/injection, schedule: Q01DX Z (ip), vehicle: saline 98 % of control | endpoint: mean survival time, dose: 0.5 mg/kg/injection, schedule: Q01DX Z (ip), vehicle: saline 98 % of control | endpoint: mean survival time, dose: 0.7 mg/kg/injection, schedule: Q01DX015 (ip), vehicle: carboxymethylcellulose (CMC) 111 % of control | endpoint: mean survival time, dose: 1.0 mg/kg/injection, schedule: Q01DX Z (ip), vehicle: saline 113 % of control | endpoint: mean survival time, dose: 1.5 mg/kg/injection, schedule: Q01DX015 (ip), vehicle: carboxymethylcellulose (CMC) 122 % of control | endpoint: mean survival time, dose: 2.0 mg/kg/injection, schedule: Q01DX Z (ip), vehicle: saline 117 % of control | endpoint: mean survival time, dose: 3.0 mg/kg/injection, schedule: Q01DX001 (ip), vehicle: carboxymethylcellulose (CMC) 104 % of control | endpoint: mean survival time, dose: 3.0 mg/kg/injection, schedule: Q01DX015 (ip), vehicle: carboxymethylcellulose (CMC) 90 % of control | endpoint: mean survival time, dose: 6.0 mg/kg/injection, schedule: Q01DX001 (ip), vehicle: carboxymethylcellulose (CMC) 107 % of control | endpoint: mean survival time, dose: 12.0 mg/kg/injection, schedule: Q01DX001 (ip), vehicle: carboxymethylcellulose (CMC) 107 % of control | endpoint: mean survival time, dose: 25.0 mg/kg/injection, schedule: Q01DX001 (ip), vehicle: carboxymethylcellulose (CMC) 112 % of control | endpoint: mean survival time, dose: 50.0 mg/kg/injection, schedule: Q01DX001 (ip), vehicle: carboxymethylcellulose (CMC) 112 % of control | endpoint: mean survival time, dose: 100.0 mg/kg/injection, schedule: Q01DX001 (ip), vehicle: carboxymethylcellulose (CMC) 114 % of control | endpoint: median survival time, dose: 2.0 mg/kg/injection, schedule: Q04DX003 (ip), vehicle: acid diluted with saline 103 % of control | endpoint: median survival time, dose: 4.0 mg/kg/injection, schedule: Q04DX003 (ip), vehicle: acid diluted with saline 103 % of control | endpoint: median survival time, dose: 8.0 mg/kg/injection, schedule: Q04DX003 (ip), vehicle: acid diluted with saline 103 % of control | endpoint: median survival time, dose: 16.0 mg/kg/injection, schedule: Q04DX003 (ip), vehicle: acid diluted with saline 112 % of control

COc1ccc(C)cc1NC(=O)Nc1cc([N+](=O)[O-])ccc1C
inactive: [12] 93 % of control | [13] 98 % of control | [14] 102 % of control

COc1cc(Br)c2c(c1OC)C(=O)CC2
inactive: [12] 94 % of control | [9] 98 % of control | [13] 96 % of control | [10] 96 % of control | [14] 98 % of control | [11] 91 % of control
